The source of these data is EPA's ToxValDB 9.5 (doi:10.2903/j.efsa.2013.3253).

Molecules are shown by their SMILES. In brackets after ≈: the same amount, converted by molar mass.

The subject of one data set is Tagia sp. The note with it: acute; duration: 14 days; mortality.
For the next data set, the system named is Canidae. The note with it: chronic; duration: 1 years; oral; Dog Other; histopathology: nonneoplastic.
The test system of the next data set is Pimephales promelas. The note with it: chronic/long-term; duration: 33 days; growth.
Another data set relates to Cyprinodon variegatus. The note with it: acute; duration: 96 hours; mortality.
In a further data set the test system is Apis mellifera. The note with it: acute, duration: 48 hours, mortality.
The next data set concerns Daphnia magna. The note with it: chronic/long-term; duration: 22 days; reproduction.
In the next data set the test system is Rattus norvegicus. The note with it: mortality.
The test system of the next data set is Neomysis kadiakensis. The note with it: acute; duration: 96 hours; mortality.

As for `COC(=O)CC(NC(=O)[C@@H](NC(=O)OC(C)C)C(C)C)c1ccc(Cl)cc1` (stereo partly specified) [Valifenalate], the LC50 in the data set with Tagia sp. was more than 1000 mg/kg; in the data set with Anas platyrhynchos (short-term, oral, feed, mortality) it was more than 2650 mg/kg-day; in the data set on Cyprinodon variegatus, more than 15 µg/mL; in the data set on Colinus virginianus (acute, oral, diet, mortality), more than 1510 mg/kg-day; in the data set on Neomysis kadiakensis, 2.8 µg/mL (≈ 7.02 µM). The NOAEL with Canidae stood at 7 mg/kg-day; with Anas platyrhynchos (reproductive, reproduction), 167 mg/kg-day; in the data set with Colinus virginianus (reproduction developmental, reproduction), 104 mg/kg-day; with Rattus norvegicus (reproduction developmental) it was 80 mg/kg-day. Also, the NOEC amounted to 12 mg/L with Pimephales promelas and 3.2 mg/L in the data set on Daphnia magna. For the same compound, the LD50 in the data set on Anas platyrhynchos (acute, oral, unspecified, mortality) is more than 2250 mg/kg; in the data set on Apis mellifera (dermal), more than 100 µg/piece; in the data set on Apis mellifera (oral, unspecified), more than 107 µg/piece; in the data set with Colinus virginianus (acute, oral, mortality) it was more than 2250 mg/kg; in the data set with Rattus norvegicus (acute, oral) it was more than 5000 mg/kg.

By NOAEL is commonly meant the highest dose or exposure tested at which no adverse effect was seen.
